From paper PMC6508953 (Cell chemical biology, 2017) come the findings set out here.

Data set [1] deals with BMK cells.
The subject of data set [2] is Bax. The experiment in a line: Bax:membrane FRET. It is filed as biochemical, human. As to conditions: 10 μM preincubated with 20 nM Alexa568-Bax, 20 nM BIM, DiD liposomes.
Data set [3] deals with T1, Bax (Homo sapiens, UniProt Q07812). The data set can be described thus: tBid/Bax-mediated liposome permeabilization. The note with it: for IC50: read-out: IC50, concentration of compound required to inhibit 50% of the maximal dye release, liposomes, tBid and Bax, ANTS/DPX release.
T1 sequence (Q07812 whole entry): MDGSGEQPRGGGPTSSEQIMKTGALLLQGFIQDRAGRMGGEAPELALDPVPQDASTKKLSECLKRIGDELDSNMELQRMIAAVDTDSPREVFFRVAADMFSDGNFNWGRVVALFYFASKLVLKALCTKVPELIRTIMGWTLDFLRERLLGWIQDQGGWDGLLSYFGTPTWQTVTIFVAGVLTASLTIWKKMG
Data set [4] addresses T1, Bax. The experiment in a line: DSS chemical crosslinking of Bax oligomers in liposomes, immunoblot. It is filed as biochemical. The note with it: for large oligomers of Bax (DSS crosslinking): high concentrations, compared with positive control Bcl-XL. In general terms: Immunoblotting shows a protein as a band on a membrane.
In data set [5] the target is T1, Bax. The note with it: not told.
The test system of data set [6] is HCT-116 cells. As to conditions: 5 or 10 μM pretreatment; WT, Bax-/- and Bak-/- HCT-116 cells; actinomycin D.
The test system of data set [7] is primary embryonic mouse brain cortical neurons. The experiment in a line: Glutamate excitotoxicity, lactate dehydrogenase release. It is filed as cell-based.
For data set [8], the system named is HCT-116 cells. The data set can be described thus: Immunofluorescence for activated Bax. The note with it: 10 μM for 3 hr before ActD for 24 hr, HCT-116 WT. It is filed as cell-based, human.
Data set [9] concerns the target T1, Bax. The experiment in a line: Bax binding to mitochondria by differential centrifugation. It is filed as biochemical. The note with it: preincubation of Bax or mitochondria with compound.
In data set [10] the test system is Bax. The experiment in a line: Bax:Bax FRET oligomerization assay. It is filed as biochemical, human. As to conditions: 10 μM, liposomes and tBid.
For data set [11], the system named is Bax. It is filed as biochemical. As to conditions: 40 μM.

The structures appear in SMILES notation.

`NCCCN(Cc1ccc(Br)cc1)C(=O)[C@H](Cc1ccccc1)NC(=O)c1ccccc1` [DAN004]: the “protection against ActD treatment” value in [1] (sub-toxic doses) is “did not confer protection against ActD treatment”. The “Bax binding to membranes by FRET” value in data set [2] is “did not inhibit Bax binding to membranes”. In addition, the IC50 in [3] is about 0.7 µM. For the same compound, the “large oligomers of Bax (DSS crosslinking)” value in data set [4] is on record as “inhibited large oligomers of Bax to a similar extent as the positive control Bcl-XL”. In addition, the “inhibition of heat-activated Bax-mediated liposome permeabilization” value in data set [5] is “inhibited heat-activated Bax-mediated liposome permeabilization equivalently”.

Consider `COCCOCOc1ccc2c(c1)O[C@H](CN)[C@H]2N(Cc1ccc(Br)cc1)C(=O)[C@H](Cc1ccccc1)NC(=O)c1ccccc1` [MSN-125], for which the “survival and growth after STS treatment and replating” value in data set [1] (5 μM compound, BMK cells, staurosporine) is “conferred long-term survival and growth”. In addition, the “survival and growth after ActD treatment and replating” value in data set [1] (5 or 10 μM pretreatment, WT, Bax-/- and Bak-/- BMK cells, 75 nM ActD) is reported as “conferred survival”. For the same compound, the “concentration-dependent inhibition of liposome permeabilization by tBid and Bax” value in data set [3] (individual assays, normalized to reactions without compound) is “inhibited dye release from liposomes in a concentration-dependent fashion”. Also, in data set [3], the IC50 is about 4 µM. Moreover, in data set [4], the “large oligomers of Bax (DSS crosslinking)” value is “inhibited large oligomers of Bax to a similar extent as the positive control Bcl-XL”. In addition, the “Bax dimerization (DSS crosslinking)” value in data set [4] (highest concentration tested) was “inhibited Bax dimerization to a limited extent”. In addition, in [6], the “survival and growth after ActD treatment and replating” value is given as “conferred survival”. Further, the “neuronal damage after glutamate excitotoxicity (LDH release)” value in [7] (5 μM added directly after 30 min of 25 or 100 μM glutamate, read after 24 hr) is “substantially reduced neuronal damage”. In addition, the “neuronal damage by compound alone” value in data set [7] (5 μM, 24 hr, no glutamate) was “did not result in neuronal damage”. In addition, in data set [8], the “Bax-6A7 positivity (exposure of N-terminal Bax epitope) after ActD” value was “prevented” and the “cytochrome c release from mitochondria in cells after ActD” value is recorded as “prevented”. The “Bax binding to mitochondria” value in data set [9] was “did not inhibit Bax binding to mitochondria”. The “FRET between DAC-Bax-134C and NBD-Bax-126C (Bax oligomerization)” value in [10] is “reduced FRET”. For the same compound, in [11], the “disulfide crosslinks of double-cysteine Bax L59C/L76C and L59C/M79C” value is recorded as “not inhibited by MSN-125”. The “disulfide crosslinking of Bax-L63C with Bax-A112C” value in [11] (IVT and TNT systems) was “not inhibited by MSN-125”.
